# Test results reported in patent US12180193B2, “Accelerating fibrosarcoma protein degrading compounds and associated methods of use” (Arvinas Operations, Inc., priority 2020, dated 2024).
# Like-named read-outs stand apart in the source and are kept apart here.
# Assays:
# [1] = biological target: T1, BRAF V600E (Homo sapiens, UniProt P15056, V600E); assay: Cellular assay of target protein degradation, T-Rex 293 cells stably transfected with HA-BRAF_V600E (HA immunofluorescence, high content imaging); assay type: cell-based
# T1 construct: expressed in transfected cells
# T1 sequence (P15056 whole entry V600E): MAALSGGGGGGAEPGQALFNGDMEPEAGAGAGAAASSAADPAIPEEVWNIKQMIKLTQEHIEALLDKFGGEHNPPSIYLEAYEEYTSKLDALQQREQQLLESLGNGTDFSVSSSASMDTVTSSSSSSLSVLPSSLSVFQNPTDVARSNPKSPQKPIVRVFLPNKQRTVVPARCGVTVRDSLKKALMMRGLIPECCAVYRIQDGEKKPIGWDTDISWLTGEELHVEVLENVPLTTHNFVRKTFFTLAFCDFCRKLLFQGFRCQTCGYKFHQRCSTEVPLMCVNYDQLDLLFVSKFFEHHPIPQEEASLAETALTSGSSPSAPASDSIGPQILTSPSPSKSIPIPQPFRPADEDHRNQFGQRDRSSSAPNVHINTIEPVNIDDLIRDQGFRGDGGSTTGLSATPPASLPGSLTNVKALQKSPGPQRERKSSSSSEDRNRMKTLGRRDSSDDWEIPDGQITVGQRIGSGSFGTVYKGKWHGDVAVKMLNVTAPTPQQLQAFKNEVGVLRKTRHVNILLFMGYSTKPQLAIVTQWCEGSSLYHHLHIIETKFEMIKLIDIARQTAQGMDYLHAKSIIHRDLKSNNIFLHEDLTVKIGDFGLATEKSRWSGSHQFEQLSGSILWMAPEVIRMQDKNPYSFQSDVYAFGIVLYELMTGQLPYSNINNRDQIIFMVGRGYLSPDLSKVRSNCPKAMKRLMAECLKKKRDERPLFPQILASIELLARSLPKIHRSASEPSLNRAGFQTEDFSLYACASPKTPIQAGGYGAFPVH
# In short: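 Cells are plated with 1 ng/mL doxycycline and grown 24 h. Compound is then added (final 1 μM–0.1 nM, 0.1% DMSO) for another 24 h at 37 °C, followed by fixing, HA immunostaining and imaging to obtain DC50 and Dmax.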
# [2] = biological target: T2, BRAF G466V (Homo sapiens, UniProt P15056, G466V); assay: Cellular assay of target protein degradation, T-Rex 293 cells stably transfected with HA-BRAF G466V (HA immunofluorescence, high content imaging); assay type: cell-based
# T2 construct: expressed in transfected cells
# T2 sequence (P15056 whole entry G466V): as the sequence (P15056 whole entry V600E) above, with G466V, E600V counted along it
# In short: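 Read-out is HA immunofluorescence by high content imaging, with Hoechst and phalloidin co-staining, giving DC50 and Dmax as a percentage of control. Compound exposure lasts 24 hours at 37° C over 30 nM to 3 pM in 0.1% DMSO, with doxycycline-induced HA-BRAF G466V.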
# [3] = half maximal degradation, T-Rex 293 HA-BRAF V600E; read-out: BRaf V600E DC50
# [4] = maximum degradation observed, T-Rex 293 HA-BRAF V600E
# [5] = half maximal degradation, T-Rex 293 HA-BRAF G466V; read-out: BRaf G466V DC50
# [6] = maximum degradation observed, T-Rex 293 HA-BRAF G466V
# [7] = read-out: BRaf V600E DC50; half maximal degradation, T-Rex 293 HA-BRAF V600E
# [8] = read-out: BRaf G466V DC50; half maximal degradation, T-Rex 293 HA-BRAF G466V
Compound,"DC50 [1, 3] [nM]","Dmax [1, 4] [%]","DC50 [2, 5] [nM]","Dmax [2, 6] [%]","DC50 [1, 7] [nM]","DC50 [2, 8] [nM]"
"O=C1CCC(N2Cc3cc(N4CCC(CN5CC6(CCN(c7ncc(-c8cnc9[nH]cc(C(=O)c%10c(F)ccc(NS(=O)(=O)N%11CC[C@@H](F)C%11)c%10F)c9c8)cn7)C6)C5)CC4)ccc3C2=O)C(=O)N1 (stereo partly drawn) [Compound 93, (3R)-N-[3-(5-{2-[2-({1-[2-(2,6-dioxopiperidin-3-yl)-1-oxo-2,3-dihydro-1H-isoindol-5-yl]piperidin-4-yl}lmethyl)-2,6-diazaspiro[3.4]octan-6-yl]pyrimidin-5-yl}-1H-pyrrolo[2,3-b]pyridine-3-carbonyl)-2,4-difluorophenyl]-3-fluoropyrrolidine-1-sulfonamide]",< 5,35 to 70,1 to 10,> 70,,
"O=C1CCC(N2Cc3cc(C4CCN(CC5CCN(c6ccc(-c7cnc8[nH]cc(C(=O)c9c(F)ccc(NS(=O)(=O)N%10CC[C@@H](F)C%10)c9F)c8c7)cc6F)CC5)CC4)ccc3C2=O)C(=O)N1 (stereo partly drawn) [Compound 36, (3R)—N-[3-(5-[4-[4-([4-[2-(2,6-dioxopiperidin-3-yl)-1-oxo-3H-isoindol-5-yl]piperidin-1-yl]methyl)piperidin-1-yl]-3-fluorophenyl]-1H-pyrrolo[2,3-b]pyridine-3-carbonyl)-2,4-difluorophenyl]-3-fluoropyrrolidine-1-sulfonamide]",,35 to 70,,35 to 70,5 to 50,< 1
"O=C1CCC(N2Cc3cc(N4CC5(CN(CCOc6ccc(-c7cnc8[nH]cc(C(=O)c9c(F)ccc(NS(=O)(=O)N%10CC[C@@H](F)C%10)c9F)c8c7)cn6)C5)C4)ccc3C2=O)C(=O)N1 (stereo partly drawn) [Compound 158, (3R)-N-(3-{5-[6-(2-{6-[2-(2,6-dioxopiperidin-3-yl)-1-oxo-2,3-dihydro-1H-isoindol-5-yl]-2,6-diazaspiro[3.3]heptan-2-yl}ethoxy)pyridin-3-yl]-1H-pyrrolo[2,3-b]pyridine-3-carbonyl}-2,4-difluorophenyl)-3-fluoropyrrolidine-1-sulfonamide]",5 to 50,35 to 70,1 to 10,> 70,,
"COc1cc(N2CCC(CN3CCC4(CC3)CCN(c3ccc(-c5cnc6[nH]cc(C(=O)c7c(F)ccc(NS(=O)(=O)N8CC[C@@H](F)C8)c7F)c6c5)cc3)CC4)CC2)cc2c1C(=O)N(C1CCC(=O)NC1=O)C2 (stereo partly drawn) [Compound 6, (3R)-N-[3-(5-{4-[9-({1-[2-(2,6-dioxopiperidin-3-yl)-7-methoxy-1-oxo-2,3-dihydro-1H-isoindol-5-yl]piperidin-4-yl}methyl)-3,9-diazaspiro[5.5]undecan-3-yl]phenyl}-1H-pyrrolo[2,3-b]pyridine-3-carbonyl)-2,4-difluorophenyl]-3-fluoropyrrolidine-1-sulfonamide]",< 5,35 to 70,1 to 10,35 to 70,,
"O=C1CCC(N2Cc3cc(N4CCC(CC5CCN(c6ccc(-c7cnc8[nH]cc(C(=O)c9c(F)ccc(NS(=O)(=O)N%10CC[C@@H](F)C%10)c9F)c8c7)cc6)CC5)CC4)ccc3C2=O)C(=O)N1 (stereo partly drawn) [Compound 181, (3R)-N-[3-(5-{4-[4-({1-[2-(2,6-dioxopiperidin-3-yl)-1-oxo-2,3-dihydro-1H-isoindol-5-yl]piperidin-4-yl}methyl)piperidin-1-yl]phenyl}-1H-pyrrolo[2,3-b]pyridine-3-carbonyl)-2,4-difluorophenyl]-3-fluoropyrrolidine-1-sulfonamide]",,< 35,,35 to 70,50 to 500,10 to 30

# Continued, in another order:
"DC50 [1, 3] [nM]","Dmax [1, 4] [%]","DC50 [2, 5] [nM]","Dmax [2, 6] [%]",Compound,"DC50 [1, 7] [nM]","DC50 [2, 8] [nM]"
5 to 50,35 to 70,1 to 10,35 to 70,"O=C1CCC(N2Cc3cc(C[C@H](O)CN4CC5(C4)CN(c4ccc(-c6cnc7[nH]cc(C(=O)c8c(F)ccc(NS(=O)(=O)N9CC[C@@H](F)C9)c8F)c7c6)cc4)C5)ccc3C2=O)C(=O)N1 (stereo partly drawn) [Compound 130, (3R)-N-{3-[5-(4-{6-[(2S)-3-[2-(2,6-dioxopiperidin-3-yl)-1-oxo-2,3-dihydro-1H-isoindol-5-yl]-2-hydroxypropyl]-2,6-diazaspiro[3.3]heptan-2-yl}phenyl)-1H-pyrrolo[2,3-b]pyridine-3-carbonyl]-2,4-difluorophenyl}-3-fluoropyrrolidine-1-sulfonamide]",,
5 to 50,35 to 70,1 to 10,> 70,"COc1c(NS(=O)(=O)N2CC[C@@H](F)C2)ccc(F)c1C(=O)c1c[nH]c2ncc(-c3ccc(N4CCC(CN5CCC(c6ccc7c(c6)CN(C6CCC(=O)NC6=O)C7=O)CC5)CC4)cc3)cc12 (stereo partly drawn) [Compound 283, (3R)-N-[3-(5-{4-[4-({4-[2-(2,6-dioxopiperidin-3-yl)-1-oxo-2,3-dihydro-1H-isoindol-5-yl]piperidin-1-yl}methyl)piperidin-1-yl]phenyl}-1H-pyrrolo[2,3-b]pyridine-3-carbonyl)-4-fluoro-2-methoxyphenyl]-3-fluoropyrrolidine-1-sulfonamide]",,
5 to 50,35 to 70,1 to 10,> 70,"O=C1CCC(N2Cc3cc(N4CCN(CC5CN(c6ccc(-c7cnc8[nH]cc(C(=O)c9c(F)ccc(NS(=O)(=O)N%10CC[C@@H](F)C%10)c9F)c8c7)cn6)C5)CC4)ccc3C2=O)C(=O)N1 (stereo partly drawn) [Compound 101, (3R)-N-[3-(5-{6-[3-({4-[2-(2,6-dioxopiperidin-3-yl)-1-oxo-2,3-dihydro-1H-isoindol-5-yl]piperazin-1-yl}methyl)azetidin-1-yl]pyridin-3-yl}-1H-pyrrolo[2,3-b]pyridine-3-carbonyl)-2,4-difluorophenyl]-3-fluoropyrrolidine-1-sulfonamide]",,
5 to 50,35 to 70,1 to 10,> 70,"O=C1CC[C@H](N2Cc3cc([C@@H](O)CCN4CC5(C4)CN(c4ccc(-c6cnc7[nH]cc(C(=O)c8c(F)ccc(NS(=O)(=O)N9CC[C@@H](F)C9)c8F)c7c6)cc4)C5)ccc3C2=O)C(=O)N1 [Compound 106, (3R)-N-{3-[5-(4-{6-[(3S)-3-{2-[(3S)-2,6-dioxopiperidin-3-yl]-1-oxo-2,3-dihydro-1H-isoindol-5-yl}-3-hydroxypropyl]-2,6-diazaspiro[3.3]heptan-2-yl}phenyl)-1H-pyrrolo[2,3-b]pyridine-3-carbonyl]-2,4-difluorophenyl}-3-fluoropyrrolidine-1-sulfonamide]",,
< 5,35 to 70,< 1,35 to 70,"O=C1CCC(N2Cc3cc(C4CCN(CC5(O)CCN(c6ccc(-c7cnc8[nH]cc(C(=O)c9c(F)ccc(NS(=O)(=O)N%10CC[C@@H](F)C%10)c9F)c8c7)cc6)CC5)CC4)ccc3C2=O)C(=O)N1 (stereo partly drawn) [Compound 119, (3R)-N-[3-(5-{4-[4-({4-[2-(2,6-dioxopiperidin-3-yl)-1-oxo-2,3-dihydro-1H-isoindol-5-yl]piperidin-1-yl}methyl)-4-hydroxypiperidin-1-yl]phenyl}-1H-pyrrolo[2,3-b]pyridine-3-carbonyl)-2,4-difluorophenyl]-3-fluoropyrrolidine-1-sulfonamide]",,
5 to 50,35 to 70,< 1,35 to 70,"O=C1CC[C@@H](N2Cc3cc(C[C@H](O)CN4CCC(c5ccc(-c6cnc7[nH]cc(C(=O)c8c(F)ccc(NS(=O)(=O)N9CC[C@@H](F)C9)c8F)c7c6)cc5)CC4)ccc3C2=O)C(=O)N1 [Compound 116, (3R)-N-{3-[5-(4-{1-[(2S)-3-{2-[(3R)-2,6-dioxopiperidin-3-yl]-1-oxo-2,3-dihydro-1H-isoindol-5-yl}-2-hydroxypropyl]piperidin-4-yl}phenyl)-1H-pyrrolo[2,3-b]pyridine-3-carbonyl]-2,4-difluorophenyl}-3-fluoropyrrolidine-1-sulfonamide]",,
